Patent publication US12018001B2, “Pyrimidine cyclohexenyl glucocorticoid receptor modulators” (priority 2018, dated 2024)

Biological target: T1, glucocorticoid receptor (Homo sapiens, UniProt P04150)
T1 construct: host or cells: HepG2
T1 sequence (P04150 1-777): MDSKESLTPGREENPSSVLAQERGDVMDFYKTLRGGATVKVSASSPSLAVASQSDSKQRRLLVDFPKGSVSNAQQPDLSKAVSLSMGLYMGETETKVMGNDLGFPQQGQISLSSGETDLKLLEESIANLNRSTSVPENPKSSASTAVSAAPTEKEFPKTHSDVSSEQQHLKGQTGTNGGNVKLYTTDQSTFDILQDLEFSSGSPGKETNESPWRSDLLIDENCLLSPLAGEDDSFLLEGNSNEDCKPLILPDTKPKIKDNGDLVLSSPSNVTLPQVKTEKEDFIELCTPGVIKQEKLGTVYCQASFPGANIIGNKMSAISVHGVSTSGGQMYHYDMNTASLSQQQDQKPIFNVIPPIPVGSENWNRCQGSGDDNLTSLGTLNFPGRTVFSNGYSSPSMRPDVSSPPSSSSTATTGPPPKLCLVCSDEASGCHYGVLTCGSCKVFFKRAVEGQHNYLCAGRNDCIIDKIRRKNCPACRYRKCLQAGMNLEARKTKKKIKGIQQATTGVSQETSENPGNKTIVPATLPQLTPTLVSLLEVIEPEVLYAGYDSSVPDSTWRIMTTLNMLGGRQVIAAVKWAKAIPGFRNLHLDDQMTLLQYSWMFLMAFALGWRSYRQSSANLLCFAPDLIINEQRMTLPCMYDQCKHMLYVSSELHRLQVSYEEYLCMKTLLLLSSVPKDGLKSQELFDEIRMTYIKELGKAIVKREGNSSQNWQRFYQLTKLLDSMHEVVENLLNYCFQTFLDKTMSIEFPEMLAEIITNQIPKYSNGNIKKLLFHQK
Test: Hep G2 TAT assay: induction of TAT by dexamethasone in HepG2 cells
Format: cell-based
Procedure: Glucocorticoid mediated activation of TAT occurs by transactivation of glucocorticoid response elements in the TAT promoter by glucocorticoid receptor-agonist complex.
TAT activity was measured as outlined in the literature by A. Ali et al., J. Med. Chem., 2004, 47, 2441-2452.
HepG2 cells were cultured using MEME media supplemented with 10% (v/v) foetal bovine serum; 2 mM L-glutamine and 1% (v/v) NEAA at 37° C., 5%/95% (v/v) CO2/air. The HepG2 cells were counted and adjusted to yield a density of 0.125×10^6 cells/ml in RPMI 1640 without phenol red, 10% (v/v) charcoal stripped FBS, 2 mM L-glutamine and seeded at 25,000 cells/well in 200 μl into 96 well, sterile, tissue culture micro titre plates, and incubated at 37° C., 5% CO2 for 24 hours
Growth media was removed and replaced with assay media {RPMI 1640 without phenol red, 2 mM L-glutamine+10 μM forskolin}. […] Compounds were serially half log diluted in 100% (v/v) dimethylsulphoxide from a 10 mM stock.
HepG2 cells were then lysed with 30 μl of cell lysis buffer containing a protease inhibitor cocktail for 15 minutes at 4° C. 155 μl of substrate mixture was then added containing 5.4 mM Tyrosine sodium salt, 10.8 mM alpha ketoglutarate and 0.06 mM pyridoxal 5′ phosphate in 0.1 M potassium phosphate buffer (pH 7.4). After 2 hours incubation at 37° C. the reaction was terminated by the addition of 15 μl of 10 M aqueous potassium hydroxide solution, and the plates incubated for a further 30 minutes at 37° C. The TAT activity product was measured by absorbance at λ 340 nm.
[compound] and fitting the data to a 4 parameter logistic equation.

SMILES	Ki
N#Cc1ccc(C2=CC[C@H](c3[nH]c(=O)[nH]c(=O)c3Cc3ccccc3)CC2)c(Cl)c1 (single isomer, unassigned) [Example 39]	69 nM
N#Cc1ccc(C2=CC[C@@H](c3[nH]c(=O)[nH]c(=O)c3Cc3ccccc3)CC2)c(Cl)c1 (single isomer, unassigned) [Example 40]	42 nM
O=c1[nH]c([C@H]2CC=C(c3ccc(Cl)cc3C(F)(F)F)CC2)c(Cc2ccccc2)c(=O)[nH]1 (single isomer, unassigned) [Example 109]	30 nM
O=c1[nH]c([C@@H]2CC=C(c3ccc(Cl)cc3C(F)(F)F)CC2)c(Cc2ccccc2)c(=O)[nH]1 (single isomer, unassigned) [Example 110]	38 nM
O=c1[nH]c(C2CC=C(c3cccc(Cl)c3Cl)CC2)c(Cc2ccccc2)c(=O)[nH]1 (centres unmarked) [Example 2]	99 nM
O=c1[nH]c(C2CC=C(c3ccc(F)cc3)CC2)c(Cc2ccccc2)c(=O)[nH]1 (centres unmarked) [Example 3]	460 nM
O=c1[nH]c(C2CC=C(c3cncs3)CC2)c(Cc2ccccc2)c(=O)[nH]1 (centres unmarked) [Example 4]	1300 nM
N#Cc1ccccc1C1=CCC(c2[nH]c(=O)[nH]c(=O)c2Cc2ccccc2)CC1 (centres unmarked) [Example 5]	120 nM
O=c1[nH]c(C2CC=C(c3ccc(Cl)cc3Cl)CC2)c(Cc2ccccc2)c(=O)[nH]1 (centres unmarked) [Example 6]	65 nM
COc1cc(Cl)ccc1C1=CCC(c2[nH]c(=O)[nH]c(=O)c2Cc2ccccc2)CC1 (centres unmarked) [Example 7]	38 nM
O=c1[nH]c(C2CC=C(c3ccccc3Cl)CC2)c(Cc2ccccc2)c(=O)[nH]1 (centres unmarked) [Example 8]	52 nM
O=c1[nH]c(C2CC=C(c3ccc(F)cc3Cl)CC2)c(Cc2ccccc2)c(=O)[nH]1 (centres unmarked) [Example 9]	26 nM
O=c1[nH]c(C2CC=C(c3ccccc3C(F)(F)F)CC2)c(Cc2ccccc2)c(=O)[nH]1 (centres unmarked) [Example 11]	14 nM
COc1ccc(F)cc1C1=CCC(c2[nH]c(=O)[nH]c(=O)c2Cc2ccccc2)CC1 (centres unmarked) [Example 12]	350 nM
Cc1ccccc1C1=CCC(c2[nH]c(=O)[nH]c(=O)c2Cc2ccccc2)CC1 (centres unmarked) [Example 13]	83 nM
CS(=O)(=O)c1ccccc1C1=CCC(c2[nH]c(=O)[nH]c(=O)c2Cc2ccccc2)CC1 (centres unmarked) [Example 15]	520 nM
O=c1[nH]c(C2CC=C(c3cccc(Cl)c3)CC2)c(Cc2ccccc2)c(=O)[nH]1 (centres unmarked) [Example 16]	640 nM
COc1ccc(C2=CCC(c3[nH]c(=O)[nH]c(=O)c3Cc3ccccc3)CC2)c(C(F)(F)F)c1 (centres unmarked) [Example 17]	280 nM
COc1ccccc1C1=CCC(c2[nH]c(=O)[nH]c(=O)c2Cc2ccccc2)CC1 (centres unmarked) [Example 18]	260 nM
O=c1[nH]c(C2CC=C(c3c(Cl)cccc3Cl)CC2)c(Cc2ccccc2)c(=O)[nH]1 (centres unmarked) [Example 19]	32 nM
Cc1ccc(F)cc1C1=CCC(c2[nH]c(=O)[nH]c(=O)c2Cc2ccccc2)CC1 (centres unmarked) [Example 21]	270 nM
Cc1ccc(CO)cc1C1=CCC(c2[nH]c(=O)[nH]c(=O)c2Cc2ccccc2)CC1 (centres unmarked) [Example 22]	330 nM
COc1ccc(C#N)cc1C1=CCC(c2[nH]c(=O)[nH]c(=O)c2Cc2ccccc2)CC1 (centres unmarked) [Example 23]	330 nM
Cc1c(F)cccc1C1=CCC(c2[nH]c(=O)[nH]c(=O)c2Cc2ccccc2)CC1 (centres unmarked) [Example 24]	33 nM
Cc1ncccc1C1=CCC(c2[nH]c(=O)[nH]c(=O)c2Cc2ccccc2)CC1 (centres unmarked) [Example 25]	100 nM
O=c1[nH]c(C2CC=C(c3ccccc3OC(F)(F)F)CC2)c(Cc2ccccc2)c(=O)[nH]1 (centres unmarked) [Example 26]	50 nM
N#Cc1ccc(Cl)c(C2=CCC(c3[nH]c(=O)[nH]c(=O)c3Cc3ccccc3)CC2)c1 (centres unmarked) [Example 27]	210 nM

SMILES	Ki
O=c1[nH]c(C2CC=C(c3cc(CO)ccc3Cl)CC2)c(Cc2ccccc2)c(=O)[nH]1 (centres unmarked) [Example 28]	150 nM
COc1ccc(C2=CCC(c3[nH]c(=O)[nH]c(=O)c3Cc3ccccc3)CC2)c(Cl)c1 (centres unmarked) [Example 29]	12 nM
Cc1ccncc1C1=CCC(c2[nH]c(=O)[nH]c(=O)c2Cc2ccccc2)CC1 (centres unmarked) [Example 30]	50 nM
Cn1nccc1C1=CCC(c2[nH]c(=O)[nH]c(=O)c2Cc2ccccc2)CC1 (centres unmarked) [Example 31]	120 nM
N#Cc1cccc(C2=CCC(c3[nH]c(=O)[nH]c(=O)c3Cc3ccccc3)CC2)c1 (centres unmarked) [Example 33]	740 nM
O=c1[nH]c(C2CC=C(c3ccc(F)cc3C(F)(F)F)CC2)c(Cc2ccccc2)c(=O)[nH]1 (centres unmarked) [Example 34]	23 nM
O=c1[nH]c(C2CC=C(c3cccc(Cl)c3C(F)(F)F)CC2)c(Cc2ccccc2)c(=O)[nH]1 (centres unmarked) [Example 35]	59 nM
O=c1[nH]c(C2CC=C(c3cccc(C(F)(F)F)c3Cl)CC2)c(Cc2ccccc2)c(=O)[nH]1 (centres unmarked) [Example 36]	110 nM
O=c1[nH]c(C2CC=C(c3ccc(C(F)(F)F)cc3F)CC2)c(Cc2ccccc2)c(=O)[nH]1 (centres unmarked) [Example 37]	140 nM
N#Cc1cc(C(F)(F)F)ccc1C1=CCC(c2[nH]c(=O)[nH]c(=O)c2Cc2ccccc2)CC1 (centres unmarked) [Example 38]	75 nM
CN1CCN(C(=O)c2ccc(C3=CCC(c4[nH]c(=O)[nH]c(=O)c4Cc4ccccc4)CC3)c(Cl)c2)CC1 (centres unmarked) [Example 41, 5-Benzyl-6-(2′-chloro-4′-(4-methylpiperazine-1-carbonyl)-2,3,4,5-tetrahydro-[1,1′-biphenyl]-4-yl)pyrimidine-2,4(1H,3H)-dione]	480 nM
O=C(c1ccc(C2=CCC(c3[nH]c(=O)[nH]c(=O)c3Cc3ccccc3)CC2)c(Cl)c1)N1CCCC1 (centres unmarked) [Example 42, 5-Benzyl-6-(2′-chloro-4′-(pyrrolidine-1-carbonyl)-2,3,4,5-tetrahydro-[1,1′-biphenyl]-4-yl)pyrimidine-2,4(1H,3H)-dione]	33 nM
O=c1[nH]c(C2CC=C(c3cccnc3N3CCCCC3)CC2)c(Cc2ccccc2)c(=O)[nH]1 (centres unmarked) [Example 43, 5-Benzyl-6-(4-(2-(piperidin-1-yl)pyridin-3-yl)cyclohex-3-en-1-yl)pyrimidine-2,4(1H,3H)-dione]	150 nM
O=c1[nH]c(C2CC=C(c3cccnc3N3CCCC3)CC2)c(Cc2ccccc2)c(=O)[nH]1 (centres unmarked) [Example 44]	45 nM
O=c1[nH]c(C2CC=C(c3cccnc3N3CCC(F)(F)CC3)CC2)c(Cc2ccccc2)c(=O)[nH]1 (centres unmarked) [Example 45]	970 nM
CC1(C)CCCN(c2ncccc2C2=CCC(c3[nH]c(=O)[nH]c(=O)c3Cc3ccccc3)CC2)C1 (centres unmarked) [Example 46]	300 nM
C[C@@H]1CCCN(c2ncccc2C2=CCC(c3[nH]c(=O)[nH]c(=O)c3Cc3ccccc3)CC2)C1 (some centres unmarked) [Example 47]	400 nM
C[C@H]1CCCN(c2ncccc2C2=CCC(c3[nH]c(=O)[nH]c(=O)c3Cc3ccccc3)CC2)C1 (some centres unmarked) [Example 48]	130 nM
CO[C@H]1CCCN(c2ncccc2C2=CCC(c3[nH]c(=O)[nH]c(=O)c3Cc3ccccc3)CC2)C1 (some centres unmarked) [Example 49]	280 nM
Cc1ccc(C2=CCC(c3[nH]c(=O)[nH]c(=O)c3Cc3ccccc3)CC2)c(N2CCCC2)n1 (centres unmarked) [Example 50]	14 nM
O=c1[nH]c(C2CC=C(c3cccnc3C(F)(F)F)CC2)c(Cc2cccc(N3CCCC3)n2)c(=O)[nH]1 (centres unmarked) [Example 51, 5-((6-(Pyrrolidin-1-yl)pyridin-2-yl)methyl)-6-(4-(2-(trifluoromethyl)pyridin-3-yl)cyclohex-3-en-1-yl)pyrimidine-2,4(1H,3H)-dione, formic acid]	400 nM
CC(C)Oc1ccc(C2=CCC(c3[nH]c(=O)[nH]c(=O)c3Cc3ccccc3)CC2)c(Cl)c1 (centres unmarked) [Example 52]	568 nM
CCOc1ccc(C2=CCC(c3[nH]c(=O)[nH]c(=O)c3Cc3ccccc3)CC2)c(C(F)(F)F)c1 (centres unmarked) [Example 53]	51 nM
CCn1nccc1C1=CCC(c2[nH]c(=O)[nH]c(=O)c2Cc2ccccc2)CC1 (centres unmarked) [Example 54]	1360 nM
CN(C)c1ncc(C2=CCC(c3[nH]c(=O)[nH]c(=O)c3Cc3ccccc3)CC2)cn1 (centres unmarked) [Example 55]	1480 nM
Cc1nn(C)cc1C1=CCC(c2[nH]c(=O)[nH]c(=O)c2Cc2ccccc2)CC1 (centres unmarked) [Example 58]	520 nM
